Earlier results as cited in patent publication US20220331213A1, “ANTIMICROBIAL COMPOSITIONS COMPRISING A BENZOIC ACID ANALOG AND ACID PH BUFFERS” (eHealth Nexus LLC, priority 2021, published 2022).

How the values were obtained:
[1] = for pK2 / pK1: aqueous; for pK2: second dissociation of di-/polycarboxylic acid; for pK1: first dissociation of di-/polycarboxylic acid; for pKa (acid dissociation constant): aqueous pKa
rhinovirus = conditions: 2% salicylic acid on skin

O=C(O)CCCCC(=O)O [adipic acid]
pK2 [1]: about 5.4

O=C(O)c1ccccc1O [salicylic acid]
residual anti-rhinovirus activity on the skin (rhinovirus): diminish over 3 hours

O=C(O)CC(O)(CC(=O)O)C(=O)O [citric acid]
pK1 [1]: about 2.9

O=C(O)c1cccnc1 [nicotinic acid]
pKa (acid dissociation constant) [1]: 4.82

O=C(O)CO [glycolic acid]
pKa (acid dissociation constant) [1]: ~3.8

O=C(O)CCCC(=O)O [glutaric acid]
pKa (acid dissociation constant) [1]: 3.76 | pK1 [1]: about 4.3 | pK2 [1]: about 5.4

O=C(O)[C@H](O)[C@@H](O)[C@H](O)[C@H](O)CO [gluconic acid]
pKa (acid dissociation constant) [1]: 3.85
